Measurements reported in patent US20030013660A1, “Dioxolane analogs for improved inter-cellular delivery” (Shire BioChem Inc., priority 2000, published 2003).
Where two headings read alike, the source gives them in different places.

Columns and labels:
Experiment in all cases: 3H-TdR (3H-thymidine) incorporation assay at 72 hr
SF-268 = assay type: cell-based, Human; conditions: Homo sapiens
CEM/dCK- = assay type: cell-based; conditions: for IC50: Homo sapiens, CCRF-CEM; for Factor* (Resistance Factor = Ratio of dCK- on Wild-type CCRF-CEM): ratio of IC50 CEM/dCK- to CCRF-CEM, 24 h
Experimental: (§1) Table of IC50 Values (μM) for Controls
(§2) Exposition of 24 hr to drug, wash, incubated for another 48 hr (total of 72 hr assay)
(§3) (3H-Thymidine Incorporation Assay)

CCRF-CEM = assay type: cell-based; conditions: Homo sapiens, CCRF-CEM
Experimental: as §1, §2, §3

H-460 = assay type: cell-based, Human; conditions: Homo sapiens
MCF-7 = assay type: cell-based, Human; conditions: Homo sapiens
[1] = SF-268, read-out: IC50 SF-268 24 h, 24 h drug exposure, wash, another 48 hr, 3H-TdR incorporation at 72 hr
[2] = read-out: IC50 CEM/dCK- 24 h, 24 h drug exposure, wash, another 48 hr, deoxycytidine kinase-deficient CCRF-CEM
[3] = read-out: IC50 CCRF-CEM 24 h, 24 h drug exposure, wash, another 48 hr, 3H-TdR incorporation at 72 hr
[4] = NCI-H460, read-out: IC50 H-460 24 h, 24 h drug exposure, wash, another 48 hr, 3H-TdR incorporation at 72 hr
[5] = MCF7, read-out: IC50 MCF-7 24 h, 24 h drug exposure, wash, another 48 hr, 3H-TdR incorporation at 72 hr

| Structure (SMILES) | IC50 (SF-268; [1]) | IC50 (CEM/dCK-; [2]) | Factor* (Resistance Factor = Ratio of dCK- on Wild-type CCRF-CEM) (CEM/dCK-) | IC50 (CCRF-CEM; [3]) | IC50 (H-460; [4]) | IC50 (MCF-7; [5]) | IC50 (SF-268; SF-268, read-out: IC50 SF-268 24 h) | IC50 (CEM/dCK-; read-out: IC50 CEM/dCK- 24 h) | IC50 (CCRF-CEM; read-out: IC50 CCRF-CEM 24 h) | IC50 (H-460; NCI-H460, read-out: IC50 H-460 24 h) | IC50 (MCF-7; MCF7, read-out: IC50 MCF-7 24 h) |
| --- | --- | --- | --- | --- | --- | --- | --- | --- | --- | --- | --- |
| Cl.Nc1ccn([C@@H]2CO[C@H](COC(=O)Oc3ccc([N+](=O)[O-])cc3)O2)c(=O)n1 [Compound 88, 1-[2-(4-NITRO- PHENOXYCARBONYLOXYMETHY L)-[1,3]DIOXOLAN-4-YL]- 2-OXO-1,2-DIHYDRO- PYRIMIDIN-4-YL- AMMONIUM; CHLORIDE] | 0.61 µM | 82 µM | 931 | 0.088 µM | 0.14 µM | 0.19 µM | – | – | – | – | – |
| COC(C)(C)OC[C@H]1OC[C@@H](n2ccc(N)nc2=O)O1 [Compound 54, 4-AMINO-1-[2-(1- METHOXY-1-METHYL- ETHOXYMETHYL)- [1,3]DIOXOLAN-4-YL]-1H- PYRIMIDIN-2-ONE] | 0.7 µM | 65 µM | 542 | 0.12 µM | 0.17 µM | 0.5 µM | – | – | – | – | – |
| O=C(Nc1ccn([C@@H]2CO[C@H](COC(=O)Oc3ccc(Cl)cc3)O2)c(=O)n1)Oc1ccc(Cl)cc1 [Compound 103] | – | – | 4,545 | – | – | – | 0.063 µM | 50 µM | 0.011 µM | 0.052 µM | 0.018 µM |
| CCCCCCNC(=O)OC[C@H]1OC[C@@H](n2ccc(N)nc2=O)O1 [Compound 121, HEXYL-CARBAMIC ACID 4- (4-AMINO-2-OXO-2H- PYRIMIDIN-1-YL)- [1,3]DIOXOLAN-2- YLMETHYL ESTER] | > 100 µM | > 100 µM | >6 | 17 µM | 28 µM | 37 µM | – | – | – | – | – |
| COC(=O)CCCC(=O)Nc1ccn([C@@H]2CO[C@H](CO)O2)c(=O)n1 [Compound 81, 4-[1-(2-HYDROXYMETHYL- [1,3]DIOXOLAN-4-YL)-2- OXO-1,2-DIHYDRO- PYRIMIDIN-4- YLCARBAMOYL]-BUTYRIC ACID METHYL ESTER] | 7.9 µM | > 100 µM | 83 | 1.2 µM | 3.1 µM | 2.2 µM | – | – | – | – | – |
| CN(C)/C=N/c1ccn([C@@H]2CO[C@H](COC(=O)C(C)(C)C)O2)c(=O)n1 [Compound 133, 2,2-Dimethyl-propionic acid 4-[4-(dimethylamino-methyleneamino)-2-oxo-2H-pyrimidin-1-yl]-[1,3]dioxolan-2-ylmethyl ester] | 0.016 µM | 31 µM | 1,148 | 0.027 µM | 0.021 µM | 0.1 µM | – | – | – | – | – |
| CCCCCCNC(=O)Nc1ccn([C@@H]2CO[C@H](CO)O2)c(=O)n1 [Compound 120, 1-HEXYL-3-[1-(2- HYDROXYMETHYL- [1,3]DIOXOLAN-4-YL)-2- OXO-1,2-DIHYDRO- PYRIMIDIN-4-YL]-UREA] | > 100 µM | > 100 µM | – | > 100 µM | > 100 µM | 64 µM | – | – | – | – | – |
| O=C(Nc1ccn([C@@H]2CO[C@H](COC(=O)OCc3ccccc3)O2)c(=O)n1)OCc1ccccc1 [Compound 51, 4-(4- BENZYLOXYCARBONYLAMINOC YTOSYL)-[1,3]DIOXOLAN- 2-YLMETHYL BENZYL CARBONATE] | 0.86 µM | 47 µM | 1,958 | 0.024 µM | 0.83 µM | 0.57 µM | – | – | – | – | – |
| CC(=O)OCC1OC2OC(C)(OC[C@H]3OC[C@@H](n4ccc(NC(=O)OCc5ccccc5)nc4=O)O3)OC2C(OC(C)=O)C1OC(C)=O (stereo in doubt) [Compound 148, Acetic acid 6-acetoxy-5-acetoxymethyl-2-[4-(4-benzyloxycarbonylamino-2-oxo-2H-pyrimidin-1-yl)-[1,3]dioxolan-2-ylmethoxy]-2-methyl-tetrahydro-[1,3]dioxolo[4,5-b]pyran-7-yl ester] | 9.9 µM | 24 µM | 4 | 6.3 µM | 36 µM | 6.3 µM | – | – | – | – | – |
